The values that follow come from US5312833A, “Method of inhibiting tumor growth using xanthocillin X dimethylether” (Meiji Seika Kaisha, Ltd., priority 1990, dated 1994).

The test system of data set [1] is Meth-A. The data set can be described thus: In vitro cytotoxicity, MTT assay, Meth-A. In kind it is cell-based, murine. Particulars: Mus musculus, 72 h, 3 days incubation, read-out: IC50 (drug concentration to kill 50% of the cells). The protocol: (§1) The effect of a preparation containing xanthocillin X dimethylether on cancer cells was determined by an in vitro test. For a medium, the Modified Dulbecco Minimum Essential Medium combined with 10% fetal serum was placed in a culture dish. The cytotoxic activity was observed on various cancer cells (set forth in Table 1 below) that were serially cultured in this medium in a CO2 incubator. First, the respective cancer cells were suspended in the aforementioned culture medium at a concentration of 5×10^4 cells/ml. Then 135 μl of the suspension was added to a micro-titer plate having 96 wells. Next, 15 μl of the test compound solution was added, and the plates were incubated in CO2 for 3 days. The survival of the cells after the incubation period was determined by the MTT assay (Igaku no Ayumi, Vol. 128, pages 733-735, 1984).
In general terms: Tetrazolium dyes change colour on reduction, which living cells bring about.

Data set [2] concerns P388. The data set can be described thus: In vitro cytotoxicity, MTT assay, P388. Type of data set: cell-based. Particulars: Mus musculus, 72 h, 3 days incubation, read-out: IC50 (drug concentration to kill 50% of the cells). The protocol: as §1
Data set [3] relates to Lewis carcinoma of the lung. As to the kind of experiment: In vitro cytotoxicity, MTT assay, Lewis carcinoma of the lung. In kind it is cell-based. Conditions: 72 h, 3 days incubation, read-out: IC50 (drug concentration to kill 50% of the cells). The protocol:
as §1

Data set [4] deals with B16. The data set can be described thus: In vitro cytotoxicity, MTT assay, B16. In kind it is cell-based. Particulars: Mus musculus, 72 h, 3 days incubation, read-out: IC50 (drug concentration to kill 50% of the cells). The protocol:
as §1

In data set [5] the test system is Meth-A solid tumor. As to the kind of experiment: Suppression of growth of Meth-A solid tumor in Balb/c mice. In kind it is in vivo. The protocol:
0.1 ml of 10^7 cells/ml of murine fibrosarcoma Meth-A (ascites) were inoculated subcutaneously into Balb/c mice (6-week-old, females) and the test agent was injected intraperitoneally into the mice on the next day.
The test compound had been thoroughly pulverized in a mortar, suspended in 1% carboxymethylcellulose (CMC), and mixed well using ultrasonic. The test compound was administered once daily for 4 consecutive days. Following 2 weeks of rearing, the tumor on the back was excised and its weight was recorded. The percentage by which tumor development was suppressed was computed as follows: {(tumor weight of the control-tumor weight of the test group)/tumor weight of the control group}×100.

Data set [6] in a line: Acute toxicity in Balb/c mice. Particulars: mouse, in vivo, ip, injected into the peritoneal cavity, 7-week-old females, survival over 2 weeks, suspension in 1% CMC. The protocol:
Xanthocillin X dimethylether (by way of the same suspension as used in Example 3) was injected into the peritoneal cavity of Balb/c mice (7-week-old females). The animals were reared for the next 2 weeks and their survival was recorded.

In data set [7] the test system is cancer cells. As to the kind of experiment: In vitro cytotoxicity on various cancer cells (MTT assay), summary. In kind it is cell-based. Particulars: as indicated in Table 1. The protocol:
as §1

Data set [8] concerns prostaglandin synthesis. Particulars: literature; cited from earlier work.

Values after ≈ are worked out from the molar mass of the structure shown. Where only a bound is given, the exact number is not on record here.

Take `[C-]#[N+]C(=Cc1ccc(OC)cc1)C(=Cc1ccc(OC)cc1)[N+]#[C-]` [xanthocillin X dimethylether]: the IC50 in data set [1] came to 0.71 µg/mL (≈ 2.24 µM); in data set [2], 0.67 µg/mL (≈ 2.12 µM); in data set [3] it was 0.46 µg/mL (≈ 1.45 µM); in data set [4] it was 0.45 µg/mL (≈ 1.42 µM). In addition, the “Percentage suppression of tumor growth” value in data set [5] (30 mg/kg/day intraperitoneally, once daily for 4 consecutive days, after 2 weeks, computed from tumor weights versus control (1% CMC)) is 88.5 Percentage. Further, in data set [5] (30 mg/kg/day intraperitoneally, once daily for 4 consecutive days, tumor excised after 2 weeks, mean ± standard deviation, control 0.96 ± 0.60 g), the Tumor weight turned out to be 0.11 ± 0.10 g. In addition, the “suppression of growth of Meth-A solid tumors (in words)” value in data set [5] (as shown in Table 2) is recorded as “markedly suppressed the growth of Meth-A solid tumors”. The LD50 at 336 h in data set [6] is above 120 mg/kg. For the same compound, the “cytotoxicity to a series of cancer cells (in words)” value in data set [7] is given as “cytotoxic to a series of cancer cells”. The “inhibition of prostaglandin synthesis (in words)” value in data set [8] was “specific inhibitor of prostaglandin synthesis”.

Usually LD50 stands for the dose expected to kill half of the subjects tested. The low end stands for a more toxic substance, the high end for a less toxic substance.
